In assay [1] the test system is spontaneously hypertensive rats. The assay is described as follows: Hypotensive activity (systolic blood pressure, indirect tail cuff method). Type of assay: in vivo. As to conditions: Rattus norvegicus; oral; before and at 1, 3, 5 and 7 hours; five male spontaneously hypertensive rats; from dose response curve; read-out: ED30 (effective dose which showed the maximum hypotension by 30 mmHg). The procedure:
Five male spontaneously hypertensive rats were used for each experiment. Systolic blood pressure was determined using an indirect tail cuff method before and at 1, 3, 5 and 7 hours following the oral administration of the test compound.

For assay [2], the system named is vertebral blood flow (right vertebral artery). The assay is described as follows: Effect on vertebral blood flow. In kind it is in vivo, mongrel dogs. The following applies: anesthetized dogs; for ED100 (effective dose in blood flow): injected into afferent tube, increase in blood flow by papaverine 100 μg taken as 100%; for Duration (time for which the half maximum response remained): vertebral blood flow. The procedure: Under the artificial ventilation, the right vertebral artery was perfused with the arterial blood from the left carotid artery through a short bypass. The perfused flow was measured by means of an electromagnetic flow-meter. The test compound was dissolved in an aqueous solution containing 0.1% dimethyl sulfoxide and 0.01% polyoxyethylene hydrogenated castor oil (cremophor EL®), and injected into the afferent tube. […] The duration was measured as the time for which the half maximum response remained.

For assay [3], the system named is coronary blood flow (left coronary artery). Briefly: Effect on coronary blood flow. Type of assay: in vivo, mongrel dogs. The following applies: anesthetized dogs; for ED50 (effective dose in blood flow): injected into afferent cannula, increase in blood flow by nifedipine 10 μg taken as 100%; for Duration (time for which the half maximum response remained): coronary blood flow. The procedure:
The perfused flow was measured by means of an electromagnitic flow-meter. The test compound was dissolved in an aqueous solution containing 15% ethanol and 15% polyethylene glycol, and injected into the afferent cannula. […] The duration was measured as the time for which the half maximum response remained.

As to `COC(=O)C1=C(C)NC(C)=C(C(=O)OC(CN(C)Cc2ccccc2)c2ccco2)C1c1cccc([N+](=O)[O-])c1.Cl` (stereo not drawn) [Test Compound A, 2,6-Dimethyl-4-(m-nitrophenyl)-1,4-dihydropyridine-3,5-dicarboxylic acid-3-methylester-5-[2-(N-benzyl-N-methylamino)-1-(2-furyl)ethyl]ester hydrochloride], the ED (30 mmHg) in assay [1] amounted to 1.3 mg/kg. For the same compound, in assay [2], the “ED100 (effective dose in blood flow)” value came to 1.0 µg and the “Duration (time for which the half maximum response remained)” value worked out at 11.0 min. Further, in assay [3], the “ED50 (effective dose in blood flow)” value is 1.5 µg and the “Duration (time for which the half maximum response remained)” value worked out at 15.0 min.

For `COC(=O)C1=C(C)NC(C)=C(C(=O)OCCN(C)Cc2ccccc2)C1c1cccc([N+](=O)[O-])c1.Cl` (stereo not drawn) [Nicardipine, 2,6-Dimethyl-4-(m-nitrophenyl)-1,4-dihydropyridine-3,5-dicarboxylic acid-3-methylester-5-[2-(N-benzyl-N-methylamino)ethyl]ester hydrochloride, reference compound], the ED (30 mmHg) in assay [1] turned out to be 5 mg/kg. For the same compound, in assay [2], the “ED100 (effective dose in blood flow)” value came out at 0.4 µg and the “Duration (time for which the half maximum response remained)” value was found to be 1.0 min. Also, in assay [3], the “ED50 (effective dose in blood flow)” value worked out at 0.5 µg and the “Duration (time for which the half maximum response remained)” value came to 3.0 min.

As for `COC(=O)C1=C(C)NC(C)=C(C(=O)OC(CN(C)Cc2ccccc2)c2cccs2)C1c1cccc([N+](=O)[O-])c1.Cl` (stereo not drawn) [Test Compound B, 2,6-Dimethyl-4-(m-nitrophenyl)-1,4-dihydropyridine-3,5-dicarboxylic acid-3-methylester-5-[2-(N-benzyl-N-methylamino)-1-(2-thienyl)ethyl]ester hydrochloride], in assay [1], the ED (30 mmHg) is 1 mg/kg. In addition, in assay [2], the “ED100 (effective dose in blood flow)” value is 1.8 µg and the “Duration (time for which the half maximum response remained)” value came out at 22.5 min.

As to `COC(=O)C1=C(C)NC(C)=C(C(=O)OC)C1c1ccccc1[N+](=O)[O-]` [Nifedipine], the “ED50 (effective dose in blood flow)” value in assay [3] was determined as 0.5 µg.

For `COc1ccc(Cc2nccc3cc(OC)c(OC)cc23)cc1OC` [Papaverine, reference compound], the “ED100 (effective dose in blood flow)” value in assay [2] came out at 100 µg.

The values are drawn from patent US4450165A, “Dihydropyridine compounds” (Yoshitomi Pharmaceutical Industries, Ltd., priority 1981, dated 1984).
